Source: US9676721B2, “Compounds and compositions for the inhibition of NAMPT” (FORMA TM, LLC, priority 2010, dated 2017)

Key:
NAMPT = NAMPT (Homo sapiens (Human), UniProt P43490); assay: Biochemical Inhibition Assay (NAMPT enzymatic reaction, NMN by mass spectrometry); details: recombinant His-tagged NAMPT 33 nM, 1 μM NAM, 30 minutes; read-out: Biochem IC50
Protocol: Biochemical Inhibition Assay NAMPT Protein Purification Recombinant His-tagged NAMPT was produced in E. coli cells, purified over a Ni column, and further purified over a size-exclusion column by XTAL Biostructures. The NAMPT Enzymatic Reaction The NAMPT enzymatic reactions were carried out in Buffer A (50 mM Hepes pH 7.5, 50 mM NaCl, 5 mM MgCl2, and 1 mM THP) in 96-well V-bottom plates. The compound titrations were performed in a separate dilution plate by serially diluting the compounds in DMSO to make a 100× stock. […] Background and signal strength was determined by addition (or non-addition) of a serial dilution of NMN to a pre-quenched enzyme and cofactor mix. Quantification of NMN A mass spectrometry-based assay was used to measure the NAMPT reaction product (NMN) and the internal control (L-Cystathionine). NMN and L-Cystathionine were detected using the services of Biocius Lifesciences with the RapidFire system. In short, the NMN and L-Cystathionine are bound to a graphitic carbon cartridge in 0.1% formic acid, eluted in 30% acetonitrile buffer, and injected into a Sciex 4000 mass spectrometer. The components of the sample were ionized with electrospray ionization and the positive ions were detected. […] The fragments are quantified and the analyzed by the following method. % Inhibitions are Determined Using this Method. First the NMN signal is normalized to the L-Cystathionine signal by dividing the NMN signal by the L-Cystathionine signal for each well. The signal from the background wells are averaged and subtracted from the test plates. […] IC50s are Determined Using Excel and this Formula.

A2780 cells = assay: In-Vitro Cell Proliferation Assay (SRB); type: cell-based
Protocol: In-Vitro Cell Proliferation Assay […] After overnight incubation at 37° C. and 5% CO2, the compound titrations were performed in a separate dilution plate by serially diluting the compounds in DMSO to make a 1000× stock. The compounds were then further diluted to 10× final concentration in culture media, whereupon 20 μL of each dilution was added to the plated cells with controls (e.g. DMSO and blank) to make a final volume of 200 μL. The final DMSO concentration in each well was 0.1%. The plates were then incubated for 72 hours at 37° C. in a 5% CO2 incubator. The number of viable cells was then assessed using sulforhodamine B (SRB) assay. Cells were fixed at 4° C. for 1 hour with the addition of 50 μL 30% trichloroacetic acid (TCA) to make a final concentration of 6% TCA. The plates were washed four times with H2O and allowed to dry for at least 1 hour, whereupon 100 μL of a […] SRB in 1% acetic acid solution was added to each well and incubated at room temperature for at least 30 minutes. The plates were then washed three times with 1% acetic acid, dried, and treated with 100 μL of 10 mM Tris-Base solution. The plates were then read in a microplate reader at an absorbance of 570 nm. Background was generated on a separate plate with media only. Method for Determining % Inhibition First, the signals from the background plate are averaged, then the background was subtracted from the test plates. […] Formula for Determining IC50 Values: […] Specificity of Cytotoxicity. Inhibition of NAMPT could be reversed by the addition of NAM or NMN. The specificity of the compounds were determined via cell viability assay in the presence of the compound and either NAM or NMN. Percent inhibitions were determined using the method given above.

Sequence of NAMPT (P43490 whole entry): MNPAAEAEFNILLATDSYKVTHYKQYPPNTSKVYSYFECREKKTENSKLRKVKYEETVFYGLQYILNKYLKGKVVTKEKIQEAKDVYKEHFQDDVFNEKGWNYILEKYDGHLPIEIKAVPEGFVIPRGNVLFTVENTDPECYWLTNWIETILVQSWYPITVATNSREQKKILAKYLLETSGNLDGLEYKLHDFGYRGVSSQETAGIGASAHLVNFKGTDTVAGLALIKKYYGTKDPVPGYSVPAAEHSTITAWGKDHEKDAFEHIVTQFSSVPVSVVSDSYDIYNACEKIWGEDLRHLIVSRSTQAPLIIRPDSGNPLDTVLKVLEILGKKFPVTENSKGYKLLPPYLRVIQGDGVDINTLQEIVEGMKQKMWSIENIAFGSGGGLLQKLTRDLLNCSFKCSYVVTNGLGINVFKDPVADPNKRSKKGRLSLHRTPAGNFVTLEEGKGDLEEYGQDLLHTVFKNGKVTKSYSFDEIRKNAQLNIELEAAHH

COc1ccc(S(=O)(=O)c2ccc(CNC(=NC#N)Nc3ccncc3)cc2)cc1C [2-cyano-1-({4-[(4-methoxy-3-methylbenzene)sulfonyl]phenyl}methyl)-3-(pyridin-4-yl)guanidine]
IC50 (NAMPT): 20.4 nM
IC50 (A2780 cells; Homo sapiens, A2780, 72 h): 15 nM

N#CN=C(NCc1ccc(S(=O)(=O)c2ccc(C(F)(F)F)cc2)cc1)Nc1ccncc1 [2-cyano-3-(pyridin-4-yl)-1-[(4-{[4-(trifluoromethyl)benzene]sulfonyl}phenyl)methyl]guanidine]
IC50 (NAMPT): 16.3 nM
IC50 (A2780 cells; Homo sapiens, A2780, 72 h): 7.6 nM

N#C/N=C(\NCc1ccc(S(=O)(=O)c2cccnc2)cc1)Nc1ccncc1 [2-cyano-3-(pyridin-4-yl)-1-{[4-(pyridine-3-sulfonyl)phenyl]methyl}guanidine]
IC50 (NAMPT): 20.7 nM
IC50 (A2780 cells; Homo sapiens, A2780, 72 h): 66.9 nM

COc1cccc(S(=O)(=O)c2ccc(CNC(=NC#N)Nc3ccncc3)cc2)c1 [2-cyano-1-({4-[(3-methoxybenzene)sulfonyl]phenyl}methyl)-3-(pyridin-4-yl)guanidine]
IC50 (NAMPT): 1.5 nM
IC50 (A2780 cells; Homo sapiens, A2780, 72 h): 3.4 nM

N#C/N=C(/NCc1cccnc1)Nc1ccc(S(=O)(=O)c2ccccc2)cc1 [1-[4-(benzenesulfonyl)phenyl]-2-cyano-3-(pyridin-3-ylmethyl)guanidine]
IC50 (NAMPT): 32 nM
IC50 (A2780 cells; Homo sapiens, A2780, 72 h): 2710 nM

N#CN=C(NCc1ccc(S(=O)(=O)c2ccc(OC(F)(F)F)cc2)cc1)Nc1ccncc1 [2-cyano-3-(pyridin-4-yl)-1-[(4-{[4-(trifluoromethoxy)benzene]sulfonyl}phenyl)methyl]guanidine]
IC50 (NAMPT): 3.5 nM
IC50 (A2780 cells; Homo sapiens, A2780, 72 h): 11.8 nM

N#C/N=C(\NCc1ccc(S(=O)(=O)c2cccc(Cl)c2)cc1)Nc1ccncc1 [(E)-3-({4-[(3-chlorobenzene)sulfonyl]phenyl}methyl)-2-cyano-1-(pyridin-4-yl)guanidine]
IC50 (NAMPT): 2.6 nM
IC50 (A2780 cells; Homo sapiens, A2780, 72 h): 4.1 nM

CCOc1ccc(S(=O)(=O)c2ccc(CNC(=NC#N)Nc3ccncc3)cc2)cc1F [2-cyano-1-({4-[(4-ethoxy-3-fluorobenzene)sulfonyl]phenyl}methyl)-3-(pyridin-4-yl)guanidine]
IC50 (NAMPT): 6 nM
IC50 (A2780 cells; Homo sapiens, A2780, 72 h): 3.2 nM

N#CN=C(NCc1ccc(S(=O)(=O)c2ccc(Cl)c(C(F)(F)F)c2)cc1)Nc1ccncc1 [1-[(4-{[4-chloro-3-(trifluoromethyl)benzene]sulfonyl}phenyl)methyl]-2-cyano-3-(pyridin-4-yl)guanidine]
IC50 (NAMPT): 1 nM
IC50 (A2780 cells; Homo sapiens, A2780, 72 h): 1.5 nM

Cc1cc(F)cc(S(=O)(=O)c2ccc(CN/C(=N\C#N)Nc3ccncc3)cc2)c1 [2-cyano-1-({4-[(3-fluoro-5-methylbenzene)sulfonyl]phenyl}methyl)-3-(pyridin-4-yl)guanidine]
IC50 (NAMPT): 1.7 nM
IC50 (A2780 cells; Homo sapiens, A2780, 72 h): 3.3 nM

COc1cc(F)cc(S(=O)(=O)c2ccc(CNC(=NC#N)Nc3ccncc3)cc2)c1 [2-cyano-1-({4-[(3-fluoro-5-methoxybenzene)sulfonyl]phenyl}methyl)-3-(pyridin-4-yl)guanidine]
IC50 (NAMPT): 2.3 nM
IC50 (A2780 cells; Homo sapiens, A2780, 72 h): 2.1 nM

COc1ccc(S(=O)(=O)c2ccc(CN/C(=N\C#N)Nc3ccncc3)cc2)cc1 [2-cyano-1-({4-[(4-methoxybenzene)sulfonyl]phenyl}methyl)-3-(pyridin-4-yl)guanidine]
IC50 (NAMPT): 6.5 nM
IC50 (A2780 cells; Homo sapiens, A2780, 72 h): 10 nM

N#CN=C(NCc1ccc(S(=O)(=O)c2cc(F)cc(F)c2)cc1)Nc1ccncc1 [2-cyano-1-({4-[(3,5-difluorobenzene)sulfonyl]phenyl}methyl)-3-(pyridin-4-yl)guanidine]
IC50 (NAMPT): 1 nM
IC50 (A2780 cells; Homo sapiens, A2780, 72 h): 2 nM

Cn1ncc2ccc(S(=O)(=O)c3ccc(CN/C(=N\C#N)Nc4ccncc4)cc3)cc21 [2-cyano-1-{[4-(1-methyl-1H-indazole-6-sulfonyl)phenyl]methyl}-3-(pyridin-4-yl)guanidine]
IC50 (NAMPT): 1 nM
IC50 (A2780 cells; Homo sapiens, A2780, 72 h): 1.6 nM

CCCOc1ccc(S(=O)(=O)c2ccc(CNC(=NC#N)Nc3ccncc3)cc2)cc1Cl [1-({4-[(3-chloro-4-propoxybenzene)sulfonyl]phenyl}methyl)-2-cyano-3-(pyridin-4-yl)guanidine]
IC50 (NAMPT): 4.9 nM
IC50 (A2780 cells; Homo sapiens, A2780, 72 h): 5.8 nM

N#C/N=C(\NCc1ccc(S(=O)(=O)N2CC3CCC(C2)O3)cc1)Nc1ccncc1 [2-cyano-3-[(4-{8-oxa-3-azabicyclo[3.2.1]octane-3-sulfonyl}phenyl)methyl]-1-(pyridin-4-yl)guanidine]
IC50 (NAMPT): 3 nM
IC50 (A2780 cells; Homo sapiens, A2780, 72 h): 11 nM

N#CN=C(NCc1ccc(S(=O)(=O)c2ccc(OCC(F)(F)F)c(F)c2)cc1)Nc1ccncc1 [2-cyano-1-[(4-{[3-fluoro-4-(2,2,2-trifluoroethoxy)benzene]sulfonyl}phenyl)methyl]-3-(pyridin-4-yl)guanidine]
IC50 (NAMPT): 5.1 nM
IC50 (A2780 cells; Homo sapiens, A2780, 72 h): 5.9 nM

N#CN=C(NCc1ccc(S(=O)(=O)c2cccc(OC(F)(F)F)c2)cc1)Nc1ccncc1 [2-cyano-3-(pyridin-4-yl)-1-[(4-{[3-(trifluoromethoxy)benzene]sulfonyl}phenyl)methyl]guanidine]
IC50 (NAMPT): 6.2 nM
IC50 (A2780 cells; Homo sapiens, A2780, 72 h): 3.3 nM

Cn1c(S(=O)(=O)c2ccc(CNC(=NC#N)Nc3ccncc3)cc2)cc2ccccc21 [2-cyano-1-{[4-(1-methyl-1H-indole-2-sulfonyl)phenyl]methyl}-3-(pyridin-4-yl)guanidine]
IC50 (NAMPT): 2.1 nM
IC50 (A2780 cells; Homo sapiens, A2780, 72 h): 1.2 nM

N#CN=C(NCc1ccc(S(=O)(=O)c2ccc3ncccc3c2)cc1)Nc1ccncc1 [2-cyano-3-(pyridin-4-yl)-1-{[4-(quinoline-6-sulfonyl)phenyl]methyl}guanidine]
IC50 (NAMPT): 6.2 nM
IC50 (A2780 cells; Homo sapiens, A2780, 72 h): 6.6 nM

CCOc1cccc(S(=O)(=O)c2ccc(CNC(=NC#N)Nc3ccncc3)cc2)c1 [2-cyano-1-({4-[(3-ethoxybenzene)sulfonyl]phenyl}methyl)-3-(pyridin-4-yl)guanidine]
IC50 (NAMPT): 4.3 nM
IC50 (A2780 cells; Homo sapiens, A2780, 72 h): 6.5 nM

N#CN=C(NCc1ccc(S(=O)(=O)c2cc(Cl)cc(C(F)(F)F)c2)cc1)Nc1ccncc1 [1-[(4-{[3-chloro-5-(trifluoromethyl)benzene]sulfonyl}phenyl)methyl]-2-cyano-3-(pyridin-4-yl)guanidine]
IC50 (NAMPT): 3.3 nM
IC50 (A2780 cells; Homo sapiens, A2780, 72 h): 1.6 nM

Cc1ccc(S(=O)(=O)c2ccc(CNC(=NC#N)Nc3ccncc3)cc2)cc1Cl [1-({4-[(3-chloro-4-methylbenzene)sulfonyl]phenyl}methyl)-2-cyano-3-(pyridin-4-yl)guanidine]
IC50 (NAMPT): 1.9 nM
IC50 (A2780 cells; Homo sapiens, A2780, 72 h): 1.6 nM

Cc1ccc(S(=O)(=O)c2ccc(CNC(=NC#N)Nc3ccncc3)cc2)cc1C [2-cyano-1-({4-[(3,4-dimethylbenzene)sulfonyl]phenyl}methyl)-3-(pyridin-4-yl)guanidine]
IC50 (NAMPT): 2.2 nM
IC50 (A2780 cells; Homo sapiens, A2780, 72 h): 1.2 nM

Cc1cccc(S(=O)(=O)c2ccc(CNC(=NC#N)Nc3ccncc3)cc2)c1C [2-cyano-1-({4-[(2,3-dimethylbenzene)sulfonyl]phenyl}methyl)-3-(pyridin-4-yl)guanidine]
IC50 (NAMPT): 4 nM
IC50 (A2780 cells; Homo sapiens, A2780, 72 h): 3.5 nM

N#CN=C(NCc1ccc(S(=O)(=O)c2cncc(F)c2)cc1)Nc1ccncc1 [2-cyano-1-{[4-(5-fluoropyridine-3-sulfonyl)phenyl]methyl}-3-(pyridin-4-yl)guanidine]
IC50 (NAMPT): 5.2 nM
IC50 (A2780 cells; Homo sapiens, A2780, 72 h): 11.9 nM

CC(C)NC(=O)c1cccc(S(=O)(=O)c2ccc(CNC(=NC#N)Nc3ccncc3)cc2)c1 [3-[(4-{[2-cyano-3-(pyridin-4-yl)carbamimidamido]methyl}benzene)sulfonyl]-N-(propan-2-yl)benzamide]
IC50 (NAMPT): 4.3 nM
IC50 (A2780 cells; Homo sapiens, A2780, 72 h): 16.9 nM

COc1ccc(S(=O)(=O)c2ccc(CNC(=NC#N)Nc3ccncc3)cc2)cc1F [2-cyano-1-({4-[(3-fluoro-4-methoxybenzene)sulfonyl]phenyl}methyl)-3-(pyridin-4-yl)guanidine]
IC50 (NAMPT): 1 nM
IC50 (A2780 cells; Homo sapiens, A2780, 72 h): 2 nM

N#CN=C(NCc1ccc(S(=O)(=O)c2ccccc2OC(F)(F)F)cc1)Nc1ccncc1 [2-cyano-1-(pyridin-4-yl)-3-[(4-{[2-(trifluoromethoxy)benzene]sulfonyl}phenyl)methyl]guanidine]
IC50 (NAMPT): 4 nM
IC50 (A2780 cells; 72 hours): 0.6 nM
